Test results taken from PMC12632266, “A dual L-glucose/L-galactose catabolic pathway in Luteolibacter species strain LG18” (Journal of Bacteriology, 2025).
Blank lines part the entries; values can stand above or below the compound they belong to.

What was measured:
[1] = tested on: T1, His6-LguH; assay: coupled LguE/GAPDH, NADH formation at […] nm; assay type: biochemical, Luteolibacter sp. LG18; conditions: 1 mM MgCl2, 100 mM potassium phosphate pH 7.0, 25°C
T1 construct: full-length ORF, N-terminal His6 (pET28a), E. coli BL21 Star (DE3)

[2] = tested on: T2, His6-LguD (L-GnDH); assay: NAD+ reduction at […] nm; assay type: biochemical, Luteolibacter sp. LG18; conditions: 10 mM Tris-HCl pH 7.5, 25°C
T2 construct: full-length ORF, N-terminal His6 (pET28a), E. coli BL21 Star (DE3); native N-terminus MKTLVLREPG

[3] = target: T3, His6-LguA (L-GDH) (Luteolibacter sp. LG18, UniProt Z9K5S2U0J3); assay: NADP+ reduction at […] nm; assay type: biochemical; conditions: 10 mM Tris-HCl pH 7.5, 25°C
T3 construct: full-length ORF, N-terminal His6 (pET28a), E. coli BL21 Star (DE3); native N-terminus METRKLGNTGLDVSV
T3 sequence (Z9K5S2U0J3 21-349): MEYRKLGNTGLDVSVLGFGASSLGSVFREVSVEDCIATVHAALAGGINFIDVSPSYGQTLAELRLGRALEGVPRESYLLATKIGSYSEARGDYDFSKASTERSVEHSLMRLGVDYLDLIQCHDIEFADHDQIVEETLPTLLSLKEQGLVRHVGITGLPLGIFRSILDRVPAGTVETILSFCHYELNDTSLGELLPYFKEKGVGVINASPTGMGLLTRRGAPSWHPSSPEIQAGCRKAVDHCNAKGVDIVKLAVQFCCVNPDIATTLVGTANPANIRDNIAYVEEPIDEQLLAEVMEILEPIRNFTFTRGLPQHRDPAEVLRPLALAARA

[4] = tested on: T4, His6-LguE; assay: coupled LDH, NADH oxidation (pyruvate production); assay type: biochemical, Luteolibacter sp. LG18; conditions: 100 mM potassium phosphate pH 7.0, 25°C
T4 construct: full-length ORF, N-terminal His6 (pET28a), E. coli BL21 Star (DE3)
Excerpt: coupled LDH, NADH oxidation (pyruvate production) on His6-LguE

Km ([1]; 5 mM KDG, phosphate donor): 306 ± 63 µM
Compound: O=P(O)(O)OP(=O)(O)O [PPi]

Km ([2]; 1 mM NAD+): 4.3 ± 0.34 mM
Compound: O=C(O)[C@@H](O)[C@H](O)[C@@H](O)[C@@H](O)CO [L-gluconate]

Km ([3]; 1 mM NADP+): 91.7 µM
Compound: OC[C@@H]1OC(O)[C@@H](O)[C@H](O)[C@@H]1O (stereo partly drawn) [L-galactose]

Km ([2]; 1 mM NAD+): 2.96 ± 0.23 mM
Compound: O=C(O)[C@@H](O)[C@H](O)[C@H](O)[C@@H](O)CO [L-galactonate]

Km ([3]; 1 mM NADP+): 7700 ± 490 µM
Compound: OC[C@@H]1OC(O)[C@@H](O)[C@H](O)[C@H]1O (stereo partly drawn) [L-glucose]

Km ([1]; 5 mM KDG, phosphate donor): 55 ± 47 µM
Compound: Nc1ncnc2c1ncn2[C@@H]1O[C@H](COP(=O)(O)OP(=O)(O)OP(=O)(O)O)[C@@H](O)[C@H]1O [ATP]

Km ([1]; 10 mM PPi): 198 ± 12 µM
Compound: O=C(O)C(=O)C[C@H](O)[C@H](O)CO [KDG]

Km ([3]; 100 mM L-glucose): 79.3 µM
Compound: NC(=O)c1ccc[n+]([C@@H]2O[C@H](COP(=O)(O)OP(=O)(O)OC[C@H]3O[C@@H](n4cnc5c(N)ncnc54)[C@H](OP(=O)(O)O)[C@@H]3O)[C@@H](O)[C@H]2O)c1 [NADP^+]

Km ([2]; 20 mM L-gluconate): 0.45 ± 0.03 mM
Compound: NC(=O)c1ccc[n+]([C@@H]2O[C@H](COP(=O)(O)OP(=O)(O)OC[C@H]3O[C@@H](n4cnc5c(N)ncnc54)[C@H](O)[C@@H]3O)[C@@H](O)[C@H]2O)c1 [NAD^+]

Km [4]: 137 ± 10 µM
Compound: O=C(O)C(=O)C[C@H](O)[C@H](O)COP(=O)(O)O [KDPG]
